From patent US5162302A, “Endocrine manipulation to improve body composition of poultry” (University of Delaware, priority 1990, dated 1992)
Where two headings read alike, the source gives them in different places.

Key:
[1] = Dietary T3 in finishing feed, dose-response: plasma T3, muscle protein turnover, fat, growth, hormones
[2] = Three daily intravenous injections of GRF and dietary T3: growth, feed efficiency, body composition (Example 2); assay type: in vivo, broiler chickens
Description: Bird management. Day-old broiler cockerels (Ross X Arbor Acre strain) were obtained from a commercial hatchery (Longnecker Hatchery, Elizabethtown, PA) and randomly assigned in groups of four birds to pens in a heated-battery brooder. Chicks were provided with a commercial broiler-starter ration (Pennfield Corp., Lancaster, PA), containing 3100 kcal metabolizable energy/kg feed and 23% crude protein, and water ad libitum. At 3 weeks of age, birds were transferred to wire pens held in a controlled-environment room. From 3 to 7 weeks of age, birds were maintained under a 20L:4D light-dark cycle at 21° C. and continuously provided with water and a commercial broiler-finisher ration containing 3250 kcal metabolizable energy/kg feed and 20% crude protein. Broiler cockerels were given three daily intravenous injections of either buffer (0.1M phosphate buffer, pH 7.0; BC) or GRF dissloved in buffer (25 μg/kg body weight) at 0800, 1600, and 2400 hr.
Dietary T3 and GRF Treatments. Four treatments were randomly assigned to pens in a randomized-complete-block design with three replicate pens per treatment. […] All birds were weighted at three day intervals to adjust the daily GRF dosage. Recombinant-derived human growth hormone-releasing factor (rhGRF1-44) was obtained from Pitman-Moore, Inc. (Terre Haute, IN).
The average daily gain (ADG), average daily feed consuption (ADFC) and the gain-to-feed ratio (GTF) were determined for the two week period (5 to 7 weeks of age). At the end of the experiment (7 weeks of age), each bird was killed to obtain the final body, abdominal fat and liver weights. Carcasses were frozen for determination of body composition as described in Example 1.
Statistical analyses. A randomized-complete-block design was used in which the four treatments were replicated in three pens. The growth data were analyzed with the pen as the experimental unit, since feed comsumption was determined for each pen of four birds. Significant differences (P≤0.05) due to the main effect of treatment were determined by Fisher's Least Significant Difference test.

[3] = Three daily intramuscular injections of GRF and dietary T3: growth, feed efficiency, body composition (Example 1); assay type: in vivo, broiler chickens
Protocol: Bird management. One day-old broiler cockerels (Ross x Arbor acre) were obtained from a commercial hatchery (Perdue Hatchery, Salisburg, MD). Five birds were randomly assigned to each of 24 pens during the first three weeks. Birds were housed in a Petersime battery-brooder and maintained in a environmentally controlled room on a 20L:4D light/dark cycle. The temperature was held at 33° C. for the first week and reduced 3° C. at weekly intervals. During this period, the chicks were provided with commercial starter ration (3100 kcal ME/kg and 22% crude protein) and water ad libitum.
At 3 weeks-of-age, four birds per pen were moved to wire cages. From 3 to 4 weeks of age, birds were fed a commercial broiler grower/finisher ration containing 19% crude protein and 3200 kcal metabolizable energy/kg. At 4 weeks of age, birds were fed a special high-protein ration that contained 25% crude protein and 3250 kcal ME/kg feed (See Table 1). […] During the experimental period (5 to 7 weeks of age), individual body weights and feed consumption were determined at weekly intervals for calculation of average daily gain (ADG), average daily feed consumption (ADFC) and gain-to-feed ratio (GTF).
Hormone treatments. […] Synthetic human pancreatic growth releasing factor (hpGRF1-44) was obtained from Pitman-Moore, Inc. (Terre Haute, IN). […] Begining at 35 days of age, broiler cockerels were given three daily intramuscular injections of buffer (0.05M sodium acetate, pH 5.0) or GRF dissolved in buffer (10 μg/kg body weight) each day at 0800, 1600, and 2400 hr. Each bird was weighed a 3 day intervals to adjust GRF dosage.
At 49 days of age, chickens were starved for 24 hours and killed for determination of final body, abdominal fat pad, and liver weights. Carcasses from one-half of the birds in each pen (2 birds/pen) were frozen for determination of body composition by proximate analysis. Each frozen carcass, including the liver and abdominal fat, was ground twice in meat grinder fitted with a one-quarter inch dye (Biro Model 5, Biro Mfg. Co., Marblehead, OH). Aliquots of the ground meat were dried at 80° C. for moisture determination. Dried samples were analyzed for protein by macro-Kjeldahl, fat by ether extraction, and ash contents according to established analytical procedures. Body composition data are presented as a percent of final body weight at 7 weeks of age.
Statistical analyses. All data were analyzed with the pen as the experimental unit since dietary treatments were applied to the pen and feed consumption was determined for each pen. Least squares regression analysis was used to test for effects of treatments on ADG, ADFC, GTF, body weight and body composition. Significant differences (P<0.05) among treatments were determined by Fisher's least significant difference test.

[4] = 0.25 to 1 ppm in diet throughout the entire growth cycle; cited from earlier work
[5] = Protein:fat ratio of broiler chickens under hormone treatments; assay type: in vivo; details: at the doses tested
[6] = 1 to 10 μg TRH/day i.v. from 4 to 6 or 8 weeks-of-age; cited from earlier work
[7] = TRH 1 or 10 μg/kg/day, GRF 10 μg/kg/day i.v., 21 days, cited from earlier work
[8] = induced hypothyroid state; cited from earlier work
[9] = finishing pigs, injection; cited from earlier work
[10] = 0.25 ppm T3, compared to the control group
[11] = plasma thyroid hormone bioactivity 360-1200% of normal
[12] = 5 to 7 weeks of age, T3 0.25 ppm, GRF 25 μg/kg i.v. 3x daily, mean ± SEM of three pens
[13] = 7 weeks of age, i.v. GRF, mean ± SEM of twelve cockerels
[14] = 7 weeks of age, i.v. GRF, twelve cockerels
[15] = 5 to 7 weeks of age, T3 0.25 ppm, GRF 10 μg/kg i.m. 3x daily, mean ± SEM of four pens
[16] = 7 weeks of age, i.m. GRF, four pens (2 birds/pen)
[17] = 7 weeks of age, i.m. GRF, mean ± SEM of four pens

N[C@@H](Cc1cc(I)c(Oc2ccc(O)c(I)c2)c(I)c1)C(=O)O [T3, 3,3',5-triiodo-L-thyronine]
Effect upon weight gain ([1]; 0.1 ppm T3 in finishing feed): no significant adverse effect
Increase of protein accretion in breast and leg muscle ([1]; 0.25 ppm T3): 45-88%
Reduction of abdominal fat weight ([1]; 0.25 ppm T3): 22%
Increase of FAR of leg muscle [1, 10]: 45%
Increase of FAR of pectoralis major (breast muscle) [1, 10]: 88%
Effect on growth rate ([1]; 0.25 ppm T3 in feed): virtually no statistically significant adverse effect
Plasma T3 level ([1]; 0.25 ppm T3 in feed): 2.7 ± 0.2 ng/mL
Plasma T3 level (control group = 100% of normal) ([1]; 0.25 ppm T3 in feed): ~ 208%
Increase of rate of protein synthesis in the leg muscle ([1]; 0.25 to 4 ppm of feed, p<0.05): at least 49%
Plasma T3 level ([1]; 1 ppm T3 in feed): 4.5 ± 0.8 ng/mL
Plasma T3 level (control group = 100% of normal) ([1]; 1 ppm T3 in feed): ~ 346%
Effect upon weight gain ([1]; 1 ppm T3 in finishing feed): some deviation from normal weight gain
Plasma T3 level ([1]; 4 ppm T3 in feed): 16.3 ± 2.6 ng/mL
Plasma T3 level (control group = 100% of normal) ([1]; 4 ppm T3 in feed): ~ 125%
Increase of fractional degradation rate of breast muscle ([1]; 4 ppm of T3): 116%
Increase of fractional synthesis rate (FSR) of the pectoralis major (breast) muscle ([1]; 4 ppm of T3, p<0.05): 56%
Fractional Accretion Rate (FAR) in the pectoralis major (breast) muscle ([1]; T3 doses in the 1 to 4 ppm range): affected negatively
Plasma GH levels ([1]; dietary T3 during the finishing phase): decrease
Glucagon secretion ([1]; dietary T3 treatment alone): increased
Insulin secretion ([1]; dietary T3 treatment alone): depresses
Protein synthesis rate in breast muscle ([1]; lower doses of T3 (0.25 to 1 ppm)): only a slight effect
Depression of body weight gain [1, 11]: ≤ 57%
Depression of feed consumption [1, 11]: ≤ 35%
ADG (average daily weight gain) ([2]; 5 to 7 weeks of age, T3 0.25 ppm in feed, GRF 25 μg/kg i.v. three times daily, mean ± SEM of three pens): 70.7 ± 5.3
ADFC (average daily feed consumption) [2, 12]: 157.0 ± 7.2
GTF (gain-to-feed ratio) [2, 12]: 0.448 ± 0.021
Increase of body water content ([2]; 7 weeks of age, vs control): 2%
Reduction of body fat content ([2]; 7 weeks of age, vs control): 10%
Final body weight BW [2, 13]: 2.82 ± 0.06 kg
Relative weight of abdominal fat [2, 13]: 1.54 ± 0.14 % BW
Relative weight of liver [2, 13]: 2.06 ± 0.05 % BW
Body composition: ash [2, 14]: 2.45 ± 0.04 % BW
Body composition: fat [2, 14]: 11.5 ± 0.64 % BW
Body composition: protein [2, 14]: 18.8 ± 0.19 % BW
Body composition: water [2, 14]: 67.0 ± 0.50 % BW
Reduction of abdominal fat weight ([2]; compared to the CF+BI group): 20%
Effect on ADG, ADFC or the GTF ratio ([2]; dietary T3 or daily i.v. GRF alone, or in combination): did not significantly affect
ADG (average daily weight gain) ([3]; 5 to 7 weeks of age, T3 0.25 ppm in feed, GRF 10 μg/kg i.m. three times daily, 25% protein ration, mean ± SEM of four pens): 76.5 ± 3.0
ADFC (average daily feed consumption) [3, 15]: 185.1 ± 7.1
GTF (gain-to-feed ratio) [3, 15]: 0.414 ± 0.01
Reduction of total body fat content ([3]; 7-week-old chickens, compared to the CF+BI group): 10%
Final body weight BW ([3]; 7 weeks of age, T3 0.25 ppm, GRF 10 μg/kg i.m. 3x daily, mean ± SEM of four pens): 2.75 ± 0.05 kg
Body composition: ash [3, 16]: 2.24 ± 0.08 % BW
Body composition: fat [3, 16]: 10.0 ± 0.78 % BW
Body composition: protein [3, 16]: 17.1 ± 0.26 % BW
Body composition: water [3, 16]: 67.6 ± 0.70 % BW
Relative weight of abdominal fat pad [3, 17]: 1.12 ± 0.11 % BW
Relative weight of liver [3, 17]: 1.99 ± 0.09 % BW
Reduction of abdominal fat weight ([3]; compared to the CF+BC group, P<0.05): 31%
Effect on ADG, ADFC or GTF ([3]; dietary T3 or daily i.m. GRF): no effect
Growth performance (body weight gain and feed efficiency) [4]: reduced body weight gain and feed efficiency

NC(=O)[C@@H]1CCCN1C(=O)[C@H](Cc1c[nH]cn1)NC(=O)[C@@H]1CCC(=O)N1 [TRH, pyro-L-Glu-L-His-L-Pro-NH2]
Effect on protein:fat ratio [5]: decrease
Growth rate [6]: capable of increasing the growth rate
Plasma GH levels [7]: elevated
Growth rate and feed efficiency ([7]; alone or in combination): failed to stimulate growth rate or improve feed efficiency

CCCc1cc(=O)[nH]c(=S)[nH]1 [propylthiouracil]
Body fat [8]: increased accumulation of body fat
Plasma insulin levels [8]: elevated
Effect on protein:fat ratio [5]: decrease

B1: pGH: purified porcine growth hormone (protein, UniProt P01248 27-216, looked up)
Somatotropin: FPAMPLSSLFANAVLRAQHLHQLAADTYKEFERAYIPEGQRYSIQNAQAAFCFSETIPAPTGKDEAQQRSDVELLRFSLLLIQSWLGPVQFLSRVFTNSLVFGTSDRVYEKLKDLEEGIQALMRELEDGSPRAGQILKQTYDKFDTNLRSDDALLKNYGLLSCFKKDLHKAETYLRVMKCRRFVESSCAF
Improvement of feed conversion [9]: 7-19%
Increase of growth rate [9]: 10-14%
Increase of muscle mass [9]: 24-36%
Reduction of carcass fat content [9]: 18-25%

B2: GH: growth hormone (e.g. ncGH, natural chicken GH) (protein, UniProt P08998 26-216, looked up)
Somatotropin: TFPAMPLSNLFANAVLRAQHLHLLAAETYKEFERTYIPEDQRYTNKNSQAAFCYSETIPAPTGKDDAQQKSDMELLRFSLVLIQSWLTPVQYLSKVFTNNLVFGTSDRVFEKLKDLEEGIQALMRELEDRSPRGPQLLRPTYDKFDIHLRNEDALLKNYGLLSCFKKDLHKVETYLKVMKCRRFGESNCTI
Effect on protein:fat ratio [5]: decrease
